# Tests used:
# ADRA2A = target: T1, ADRA2A (Homo sapiens, UniProt P08913); assay: SAFETYscan cAMP ADRA2A Agonist; assay type: cell-based
# T1 sequence (P08913 1-465): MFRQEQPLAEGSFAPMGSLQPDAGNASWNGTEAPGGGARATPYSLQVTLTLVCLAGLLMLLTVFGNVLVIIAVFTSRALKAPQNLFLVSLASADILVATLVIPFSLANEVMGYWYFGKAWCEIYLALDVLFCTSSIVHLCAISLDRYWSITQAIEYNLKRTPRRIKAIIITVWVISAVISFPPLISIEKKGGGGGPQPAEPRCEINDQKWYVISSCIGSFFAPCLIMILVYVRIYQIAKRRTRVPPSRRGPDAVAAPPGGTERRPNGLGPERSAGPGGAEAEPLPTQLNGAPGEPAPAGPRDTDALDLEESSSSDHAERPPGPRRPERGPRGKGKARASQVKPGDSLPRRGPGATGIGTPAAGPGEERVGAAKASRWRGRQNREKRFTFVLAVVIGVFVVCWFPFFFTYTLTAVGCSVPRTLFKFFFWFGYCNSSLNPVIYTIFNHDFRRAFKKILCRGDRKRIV
# Text: (§1) Supplement jm3c00155_si_002.xlsx, sheet "SAFETYScan" | column: RC50 (uM); Max Response
# GR = target: T2, GR (Homo sapiens, UniProt P04150); assay: SAFETYscan NHR Protein Interaction GR Agonist; assay type: cell-based
# T2 sequence (P04150 1-777): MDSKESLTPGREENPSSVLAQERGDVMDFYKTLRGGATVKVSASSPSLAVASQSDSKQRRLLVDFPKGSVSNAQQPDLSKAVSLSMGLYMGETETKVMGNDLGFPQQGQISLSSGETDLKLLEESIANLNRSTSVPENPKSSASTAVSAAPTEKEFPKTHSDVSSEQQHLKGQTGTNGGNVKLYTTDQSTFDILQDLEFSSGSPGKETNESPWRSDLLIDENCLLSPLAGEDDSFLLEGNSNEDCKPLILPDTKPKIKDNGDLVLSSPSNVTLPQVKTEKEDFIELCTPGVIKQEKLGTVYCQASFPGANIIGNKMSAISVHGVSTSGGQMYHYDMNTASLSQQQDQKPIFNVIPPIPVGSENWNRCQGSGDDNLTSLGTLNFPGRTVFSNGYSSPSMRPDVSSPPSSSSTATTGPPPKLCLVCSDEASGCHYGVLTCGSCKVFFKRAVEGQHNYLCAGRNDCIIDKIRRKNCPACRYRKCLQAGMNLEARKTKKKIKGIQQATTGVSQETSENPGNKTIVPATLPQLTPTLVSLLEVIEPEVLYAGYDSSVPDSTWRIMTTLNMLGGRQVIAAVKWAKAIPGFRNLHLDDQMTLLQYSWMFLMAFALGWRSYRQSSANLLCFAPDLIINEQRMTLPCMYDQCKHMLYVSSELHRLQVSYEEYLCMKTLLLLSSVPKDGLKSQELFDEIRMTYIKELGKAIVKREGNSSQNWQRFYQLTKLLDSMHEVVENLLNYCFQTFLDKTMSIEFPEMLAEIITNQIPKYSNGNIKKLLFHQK
# Text: as §1
# CHRM2 = target: T3, CHRM2 (Homo sapiens, UniProt P08172); assay: SAFETYscan cAMP CHRM2 Antagonist; assay type: cell-based
# T3 sequence (P08172 1-466): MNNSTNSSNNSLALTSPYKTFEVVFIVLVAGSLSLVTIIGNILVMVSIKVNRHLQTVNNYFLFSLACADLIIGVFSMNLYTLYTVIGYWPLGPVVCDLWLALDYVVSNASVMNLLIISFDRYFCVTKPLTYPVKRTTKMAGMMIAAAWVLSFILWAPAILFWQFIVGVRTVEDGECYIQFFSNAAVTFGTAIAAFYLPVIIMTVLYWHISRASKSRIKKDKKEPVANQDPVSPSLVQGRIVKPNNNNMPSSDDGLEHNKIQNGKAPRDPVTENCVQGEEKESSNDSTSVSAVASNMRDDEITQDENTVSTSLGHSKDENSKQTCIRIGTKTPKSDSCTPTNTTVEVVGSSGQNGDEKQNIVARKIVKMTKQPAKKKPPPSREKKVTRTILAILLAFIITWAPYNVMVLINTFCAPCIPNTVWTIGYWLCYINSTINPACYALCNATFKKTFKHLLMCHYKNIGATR
# Text: as §1
# DRD1 = DRD1 (Homo sapiens, UniProt P21728); assay: SAFETYscan cAMP DRD1 Antagonist; assay type: cell-based
# Text: (§2) Supplement jm3c00155_si_002.xlsx, sheet "SAFETYScan" | column: RC50 (uM); Hill; Max Response
# PDE3A = PDE3A (Homo sapiens, UniProt Q14432); assay: SAFETYscan Enzymatic PDE3A Inhibitor; assay type: biochemical
# Text: as §1
# HRH2 = HRH2 (Homo sapiens, UniProt P25021); assay: SAFETYscan cAMP HRH2 Antagonist; assay type: cell-based
# Text: as §2
# AVPR1A = AVPR1A (Homo sapiens, UniProt P37288); assay: SAFETYscan Calcium Flux AVPR1A Antagonist; assay type: cell-based
# Text: as §1
# NMDAR (1A/2B) = NMDAR (1A/2B) (Homo sapiens, UniProt Q05586+Q13224); assay: SAFETYscan Ion Channel NMDAR (1A/2B) Opener; assay type: cell-based
# Text: as §1
# HRH1 = HRH1 (Homo sapiens, UniProt P35367); assay: SAFETYscan Calcium Flux HRH1 Agonist; assay type: cell-based
# Text: as §1
# CHRM3 = CHRM3 (Homo sapiens, UniProt P20309); assay: SAFETYscan Calcium Flux CHRM3 Antagonist; assay type: cell-based
# Text: as §1
# COX2 = COX2 (Homo sapiens, UniProt P35354); assay: SAFETYscan Enzymatic COX2 Inhibitor; assay type: biochemical
# Text: as §1
# ROCK1 = ROCK1 (Homo sapiens, UniProt Q13464); assay: SAFETYscan Kinases Binding ROCK1 Inhibitor
# Text: as §1
# LCK = LCK (Homo sapiens, UniProt P06239); assay: SAFETYscan Kinases Binding LCK Inhibitor
# Text: as §1
# ADRB2 = ADRB2 (Homo sapiens, UniProt P07550); assay: SAFETYscan cAMP ADRB2 Antagonist; assay type: cell-based
# Text: as §2
# HTR2B = HTR2B (Homo sapiens, UniProt P41595); assay: SAFETYscan Calcium Flux HTR2B Agonist; assay type: cell-based
# Text: as §1
# AChE = AChE (Homo sapiens, UniProt P22303); assay: SAFETYscan Enzymatic AChE Inhibitor; assay type: biochemical
# Text: as §1
# ADRB2, sequence (P07550 whole entry): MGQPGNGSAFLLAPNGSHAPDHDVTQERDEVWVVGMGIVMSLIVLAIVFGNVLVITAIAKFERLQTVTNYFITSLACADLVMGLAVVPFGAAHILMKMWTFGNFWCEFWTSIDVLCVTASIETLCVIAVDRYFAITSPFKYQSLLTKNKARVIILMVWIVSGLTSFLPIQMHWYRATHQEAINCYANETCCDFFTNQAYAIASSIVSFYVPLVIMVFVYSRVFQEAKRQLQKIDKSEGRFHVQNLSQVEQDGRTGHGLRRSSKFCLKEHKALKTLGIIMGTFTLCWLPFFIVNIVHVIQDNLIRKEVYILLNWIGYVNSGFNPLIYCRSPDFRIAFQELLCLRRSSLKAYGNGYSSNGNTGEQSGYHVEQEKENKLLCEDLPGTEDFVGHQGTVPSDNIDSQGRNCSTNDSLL
# HRH2, sequence (P25021 whole entry): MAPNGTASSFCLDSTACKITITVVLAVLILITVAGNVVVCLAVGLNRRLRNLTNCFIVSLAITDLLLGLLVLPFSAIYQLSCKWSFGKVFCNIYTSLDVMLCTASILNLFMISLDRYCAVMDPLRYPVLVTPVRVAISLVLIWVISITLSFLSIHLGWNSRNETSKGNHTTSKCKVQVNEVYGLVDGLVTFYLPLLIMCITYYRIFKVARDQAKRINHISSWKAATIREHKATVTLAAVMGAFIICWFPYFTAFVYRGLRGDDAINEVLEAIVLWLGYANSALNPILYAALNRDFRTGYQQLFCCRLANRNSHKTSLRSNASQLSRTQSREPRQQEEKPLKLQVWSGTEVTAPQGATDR
# DRD1, sequence (P21728 whole entry): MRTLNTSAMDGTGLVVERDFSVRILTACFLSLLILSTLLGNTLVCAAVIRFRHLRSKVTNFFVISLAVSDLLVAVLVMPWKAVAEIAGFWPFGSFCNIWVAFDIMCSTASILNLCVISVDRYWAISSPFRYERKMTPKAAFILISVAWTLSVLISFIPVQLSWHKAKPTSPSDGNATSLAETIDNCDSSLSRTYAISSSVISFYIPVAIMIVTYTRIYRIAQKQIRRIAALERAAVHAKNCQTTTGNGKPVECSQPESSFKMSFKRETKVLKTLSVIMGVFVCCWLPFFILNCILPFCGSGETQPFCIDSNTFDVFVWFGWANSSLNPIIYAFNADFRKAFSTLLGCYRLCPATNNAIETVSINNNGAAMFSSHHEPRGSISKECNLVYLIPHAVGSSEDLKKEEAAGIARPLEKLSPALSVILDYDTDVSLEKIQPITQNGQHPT
# HRH1, sequence (P35367 whole entry): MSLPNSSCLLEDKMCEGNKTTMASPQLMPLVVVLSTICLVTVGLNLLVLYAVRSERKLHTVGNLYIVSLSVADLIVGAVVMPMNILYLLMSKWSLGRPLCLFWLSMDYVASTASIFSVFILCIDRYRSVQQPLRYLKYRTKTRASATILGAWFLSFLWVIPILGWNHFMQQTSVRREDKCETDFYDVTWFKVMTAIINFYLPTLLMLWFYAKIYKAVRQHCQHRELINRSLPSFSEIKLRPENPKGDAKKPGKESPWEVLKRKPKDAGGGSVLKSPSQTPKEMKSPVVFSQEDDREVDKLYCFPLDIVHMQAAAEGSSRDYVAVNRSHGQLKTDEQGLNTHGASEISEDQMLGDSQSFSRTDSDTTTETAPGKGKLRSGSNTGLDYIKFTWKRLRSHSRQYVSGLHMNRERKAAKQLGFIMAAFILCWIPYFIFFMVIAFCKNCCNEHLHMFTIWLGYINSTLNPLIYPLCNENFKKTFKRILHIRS
# COX2, sequence (P35354 18-604): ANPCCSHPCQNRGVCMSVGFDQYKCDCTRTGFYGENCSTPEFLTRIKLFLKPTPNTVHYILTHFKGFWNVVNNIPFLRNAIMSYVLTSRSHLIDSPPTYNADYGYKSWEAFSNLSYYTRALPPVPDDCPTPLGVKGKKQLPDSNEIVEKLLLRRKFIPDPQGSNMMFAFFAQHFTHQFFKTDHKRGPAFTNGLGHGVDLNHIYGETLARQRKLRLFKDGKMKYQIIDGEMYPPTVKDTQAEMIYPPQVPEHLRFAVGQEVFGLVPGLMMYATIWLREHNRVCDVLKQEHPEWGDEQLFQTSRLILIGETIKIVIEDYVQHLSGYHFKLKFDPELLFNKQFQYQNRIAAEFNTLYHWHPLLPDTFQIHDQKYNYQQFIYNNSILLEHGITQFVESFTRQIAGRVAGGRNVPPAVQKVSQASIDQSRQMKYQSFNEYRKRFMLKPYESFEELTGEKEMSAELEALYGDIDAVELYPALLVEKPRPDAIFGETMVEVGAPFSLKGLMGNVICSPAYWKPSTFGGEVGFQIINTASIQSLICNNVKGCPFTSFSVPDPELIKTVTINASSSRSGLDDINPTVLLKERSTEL
# NMDAR (1A/2B), sequence (Q13224 27-1484, other chains not shown): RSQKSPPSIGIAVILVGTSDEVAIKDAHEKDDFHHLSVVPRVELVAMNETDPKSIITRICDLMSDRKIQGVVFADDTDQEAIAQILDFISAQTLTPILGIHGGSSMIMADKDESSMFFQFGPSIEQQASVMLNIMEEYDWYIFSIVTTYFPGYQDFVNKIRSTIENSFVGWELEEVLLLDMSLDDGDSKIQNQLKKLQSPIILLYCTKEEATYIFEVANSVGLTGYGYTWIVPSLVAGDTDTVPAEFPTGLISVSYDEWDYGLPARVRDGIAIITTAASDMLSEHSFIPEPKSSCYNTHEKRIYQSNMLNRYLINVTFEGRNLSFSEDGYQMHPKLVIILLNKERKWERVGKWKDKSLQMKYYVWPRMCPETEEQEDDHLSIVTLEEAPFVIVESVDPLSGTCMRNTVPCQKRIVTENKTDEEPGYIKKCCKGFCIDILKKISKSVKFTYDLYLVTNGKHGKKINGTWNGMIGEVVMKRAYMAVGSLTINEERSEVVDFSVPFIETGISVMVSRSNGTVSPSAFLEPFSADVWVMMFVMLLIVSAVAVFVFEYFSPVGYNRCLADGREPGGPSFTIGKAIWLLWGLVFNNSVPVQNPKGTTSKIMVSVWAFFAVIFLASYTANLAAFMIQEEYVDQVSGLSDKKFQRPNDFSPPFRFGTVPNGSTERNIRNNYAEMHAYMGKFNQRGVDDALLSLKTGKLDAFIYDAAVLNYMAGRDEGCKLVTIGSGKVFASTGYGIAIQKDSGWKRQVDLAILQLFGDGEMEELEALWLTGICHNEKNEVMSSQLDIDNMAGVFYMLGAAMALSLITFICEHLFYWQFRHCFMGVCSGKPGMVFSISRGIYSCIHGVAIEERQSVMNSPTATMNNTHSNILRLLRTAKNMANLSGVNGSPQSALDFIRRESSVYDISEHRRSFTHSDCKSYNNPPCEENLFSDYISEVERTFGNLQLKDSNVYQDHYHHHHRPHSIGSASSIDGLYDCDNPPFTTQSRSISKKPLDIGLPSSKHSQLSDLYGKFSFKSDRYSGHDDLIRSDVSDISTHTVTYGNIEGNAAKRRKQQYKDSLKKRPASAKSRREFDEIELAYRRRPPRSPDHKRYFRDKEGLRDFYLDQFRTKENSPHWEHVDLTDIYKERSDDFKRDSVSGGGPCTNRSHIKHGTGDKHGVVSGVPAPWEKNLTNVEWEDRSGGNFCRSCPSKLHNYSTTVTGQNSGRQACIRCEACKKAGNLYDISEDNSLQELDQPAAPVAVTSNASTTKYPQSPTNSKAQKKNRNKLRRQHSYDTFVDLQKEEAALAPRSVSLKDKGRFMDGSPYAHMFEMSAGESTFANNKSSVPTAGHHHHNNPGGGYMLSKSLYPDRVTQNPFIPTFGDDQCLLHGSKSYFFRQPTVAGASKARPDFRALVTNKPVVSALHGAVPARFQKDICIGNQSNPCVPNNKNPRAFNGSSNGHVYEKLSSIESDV
# AChE, sequence (P22303 32-614): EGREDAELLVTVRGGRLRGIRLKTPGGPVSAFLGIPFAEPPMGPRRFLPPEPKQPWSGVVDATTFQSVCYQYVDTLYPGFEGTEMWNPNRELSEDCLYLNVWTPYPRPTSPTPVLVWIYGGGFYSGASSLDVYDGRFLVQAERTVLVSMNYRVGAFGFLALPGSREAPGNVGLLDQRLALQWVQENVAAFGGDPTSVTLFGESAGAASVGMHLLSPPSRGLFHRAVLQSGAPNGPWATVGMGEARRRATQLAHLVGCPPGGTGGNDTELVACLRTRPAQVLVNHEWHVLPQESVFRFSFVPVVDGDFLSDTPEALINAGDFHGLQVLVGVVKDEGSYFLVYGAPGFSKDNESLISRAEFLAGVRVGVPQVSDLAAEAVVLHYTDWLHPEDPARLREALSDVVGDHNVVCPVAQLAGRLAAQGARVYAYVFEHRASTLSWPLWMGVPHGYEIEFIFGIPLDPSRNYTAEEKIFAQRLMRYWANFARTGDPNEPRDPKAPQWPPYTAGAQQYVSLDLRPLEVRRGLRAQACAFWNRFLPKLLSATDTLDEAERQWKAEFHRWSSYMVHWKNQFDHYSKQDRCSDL
# HTR2B, sequence (P41595 whole entry): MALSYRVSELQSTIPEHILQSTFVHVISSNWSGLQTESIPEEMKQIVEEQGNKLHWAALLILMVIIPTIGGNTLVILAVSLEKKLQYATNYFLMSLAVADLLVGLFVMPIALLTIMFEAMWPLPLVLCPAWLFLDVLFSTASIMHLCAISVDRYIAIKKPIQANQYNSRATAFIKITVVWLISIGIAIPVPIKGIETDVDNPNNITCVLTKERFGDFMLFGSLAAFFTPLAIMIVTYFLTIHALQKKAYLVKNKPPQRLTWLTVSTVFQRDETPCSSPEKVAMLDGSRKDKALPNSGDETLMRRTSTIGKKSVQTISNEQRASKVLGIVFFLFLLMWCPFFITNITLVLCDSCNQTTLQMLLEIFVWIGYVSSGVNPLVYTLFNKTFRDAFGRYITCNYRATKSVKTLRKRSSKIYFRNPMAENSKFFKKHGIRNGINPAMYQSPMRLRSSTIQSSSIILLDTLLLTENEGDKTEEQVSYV
structure (smiles),measurement,setting,value
"Cn1c(=O)c2c(c3cc(Nc4ccnc(F)c4Cl)ccc31)N[C@@H](C1CC1)C(F)(F)CO2 [compound 17, (S)-10-((3-chloro-2-fluoropyridin-4-yl)amino)-2-cyclopropyl-3,3-difluoro-7-methyl-1,2,3,4-tetrahydro-[1,4]oxazepino[2,3-c]quinolin-6(7H)-one]",EC50,ADRA2A,> 10 µM
same,Emax,"ADRA2A; ADRA2A, cAMP, Agonist, read-out: Max Response",38.9%
same,Emax,GR; read-out: Max Response,0%
same,EC50,GR; read-out: RC50 (EC50),> 10 µM
same,IC50,CHRM2,> 10 µM
same,Emax,"CHRM2; CHRM2, cAMP, Antagonist, read-out: Max Response",0%
same,IC50,DRD1,2.58 µM
same,Hill,"DRD1; DRD1, cAMP, Antagonist",1.27
same,Emax,"DRD1; DRD1, cAMP, Antagonist, read-out: Max Response",82.7%
same,Emax,PDE3A; read-out: Max Response,2.67%
same,IC50,PDE3A; read-out: RC50 (IC50),> 10 µM
same,Hill,HRH2,1.03
same,Emax,HRH2; read-out: Max Response,65.2%
same,IC50,HRH2; read-out: RC50 (IC50),4.76 µM
same,Emax,AVPR1A; read-out: Max Response,2.15%
same,IC50,AVPR1A; read-out: RC50 (IC50),> 10 µM
same,EC50,NMDAR (1A/2B),> 10 µM
same,Emax,"NMDAR (1A/2B); NMDAR (1A/2B), Ion Channel, Opener, read-out: Max Response",0.2%
same,Emax,HRH1; read-out: Max Response,0%
same,EC50,HRH1; read-out: RC50 (EC50),> 10 µM
same,IC50,CHRM3,> 10 µM
same,Emax,"CHRM3; CHRM3, Calcium Flux, Antagonist, read-out: Max Response",1.21%
same,Emax,COX2; read-out: Max Response,0%
same,IC50,COX2; read-out: RC50 (IC50),> 10 µM
same,Emax,ROCK1; read-out: Max Response,0%
same,IC50,ROCK1; read-out: RC50 (IC50),> 10 µM
same,Emax,LCK; read-out: Max Response,0.08%
same,IC50,LCK; read-out: RC50 (IC50),> 10 µM
same,Hill,ADRB2,1.29
same,Emax,ADRB2; read-out: Max Response,89%
same,IC50,ADRB2; read-out: RC50 (IC50),1.77 µM
same,EC50,HTR2B,> 10 µM
same,Emax,"HTR2B; HTR2B, Calcium Flux, Agonist, read-out: Max Response",0%
same,Emax,AChE; read-out: Max Response,9.89%
same,IC50,AChE; read-out: RC50 (IC50),> 10 µM

# Reference: article PMC10150366, “Discovery of an In Vivo Chemical Probe for BCL6 Inhibition by Optimization of Tricyclic Quinolinones” (Journal of Medicinal Chemistry, 2023)
